Reference: patent US20090263472A1, “ENDOTHELIN RECEPTOR ANTAGONIST DERIVATIVES” (NICOX S.A., priority 2006, published 2009)

Columns and labels:
[1] = tested on: spontaneously hypertensive rats (SHR); assay: Antihypertensive activity in vivo, tail-cuff systolic blood pressure; design: species or system rat; settings: for Δ SBP (Systolic Blood Pressure) 1 hr / Δ SBP (Systolic Blood Pressure) 3 hrs / Δ SBP (Systolic Blood Pressure) 6 hrs: p.o., delta vs own baseline, bosentan 100 mpk, compound of EX. 1 equimolar dose; for Δ SBP (Systolic Blood Pressure) 1 hr: 1 hr after treatment; for Δ SBP (Systolic Blood Pressure) 3 hrs: 3 hrs after treatment; for Δ SBP (Systolic Blood Pressure) 6 hrs: 6 hrs after treatment
Procedure: Ten days prior to the beginning of the experiment, spontaneously hypertensive rats (SHR) are trained daily for the measurement of blood pressure by the tail-cuff method ([…] et Al.; Am. J. Physiol. Heart Circ. Physiol 286: […]-[…], 2004) using model BP-2000 Blood Pressure Analysis System from U.Basile (Comerio, VA Italy). Each animal is placed in individuals cages into a warming cupboard (37° C.) for 15 minutes. […] Average of blood pressure values from individual rats are evaluated from 3/5 different consecutive measurements. […] The data are processed both as the absolute value or as a delta between the absolute value and its own baseline.

[2] = tested on: isolated rabbit thoracic aorta preparations; assay: Studies on vascular tone: vasorelaxation of noradrenaline-precontracted aortic rings; type: cell-based; settings: for relaxation of precontracted aortic rings (in words): cumulative concentration-response curve, noradrenaline 1 μM precontraction

| SMILES | reduction in blood pressure (in words) ([1]; oral administration) | Δ SBP (Systolic Blood Pressure) 1 hr [1] [mmHg] | Δ SBP (Systolic Blood Pressure) 3 hrs [1] [mmHg] | Δ SBP (Systolic Blood Pressure) 6 hrs [1] [mmHg] | EC50 ([2]; concentration producing 50% of maximum relaxation, aortic rings contracted with noradrenaline 1 μM, functional endothelium, read-out: EC50 (μM) ± sem) [µM] | relaxation of precontracted aortic rings (in words) [2] | EC50 (μM) ± sem ([2]; concentration producing 50% of maximum relaxation, aortic rings contracted with noradrenaline 1 μM, functional endothelium) |
| --- | --- | --- | --- | --- | --- | --- | --- |
| COc1ccccc1Oc1c(NS(=O)(=O)c2ccc(C(C)(C)C)cc2)nc(-c2ncccn2)nc1OCCOC(=O)CCCO[N+](=O)[O-] [Compound of EX. 1] | able to induce a clear reduction in blood pressure | −8 | −18 | −6 | 33.9 ± 2.5 | able to induce relaxation in a concentration-dependent manner |  |
| COc1ccccc1Oc1c(NS(=O)(=O)c2ccc(C(C)(C)C)cc2)nc(-c2ncccn2)nc1OCCO [Bosentan, reference compound] |  | 0 | 6 | −1 |  | did not produce relaxation at any of the concentration tested | no effect |
